The values below come from article PMC9916883, “Betaine- and L-Carnitine-Based Ionic Liquids as Solubilising and Stabilising Agents for the Formulation of Antimicrobial Eye Drops Containing Diacerein” (International Journal of Molecular Sciences, 2023).

A word on the MIC: it is the lowest concentration found to suppress growth. The IC50 is the concentration at which inhibition is half-maximal.

Data set [1] is described as follows: Osmolality of eye drops (osmometer). It counts as physicochemical. The following applies: eye drops in CB. Here is the method:
Male New Zealand albino rabbits weighing approximately 2.6-3 Kg, kept in standard housing conditions, were used for in vivo studies. The animals were treated as prescribed in the guidelines of the European Community Council Directive 2010/63. The animal protocol was approved by the Italian Ministry of University and Research (authorisation n. 192/2019-PR). The eye drops were prepared in CB (200 mOsm/kg). […] (588 mOsm/kg). A suspension of plain DIA (0.34 M) in CB was used as a reference sample (230 mOsm/kg). The samples' osmolality was checked using a Roebling osmometer (calibrated with NaCl 300 mOsm/kg H2O).

For data set [2], the system named is P. aeruginosa ATCC 27853. Put plainly: MIC determination (microdilution). The class given is cell-based, Pseudomonas aeruginosa. As for the experimental part:
(§1) A clinical isolate of S. aureus (W4) and the reference strain of P. aeruginosa ATCC 27853 were used in the study. For the preparation of stock cultures, bacterial strains were grown in Luria–Bertani broth (LB, Oxoid, Basingstoke, Hampshire, UK) until the late-log phase, subdivided into aliquots, and kept frozen at −80 °C until use. Identification and susceptibility testing of the S. aureus W4 strain were performed using MALDI-TOF (Bruker Daltonics, Bremen, Germany) and the BD Phoenix susceptibility testing system (BD, Milan, Italy), respectively.
(§2) The susceptibility of the bacterial strains to each of the tested compounds was assessed in terms of MIC values according to the standard microdilution method (Clinical and Laboratory Standards Institute–CLSI, 2018), with some modifications. Briefly, the bacteria were grown in LB broth until the exponential growth phase and then diluted in the same medium to reach a final density of 5 × 10^6 CFU/mL. A volume of 10 μL of the bacterial suspensions was added to 90 μL of LB in a 96-well plate in the absence (viability control) or presence of the test compound at different concentrations.

Data set [3] can be described thus: Phase solubility study (apparent solubility of DIA and Rhe with ILs or HP-β-CD). The class given is physicochemical. To be noted: 25 °C, thermodynamic from solid, read-out: saturation solubility. Here is the method: The increase in the apparent solubility of both DIA and Rhe in the presence of the ILs was evaluated. Briefly, aqueous solutions of the ILs were prepared in the range of 0–200 mg/mL, and an excess of either DIA or Rhe was added to each vial. The samples were then incubated for 30 min at 25°C, and the undissolved drug was removed by centrifugation at […] for 15 min (Hettich Mikro 120 centrifuge). […] The drug concentration was measured by UV–Vis analysis. The DIA phase solubility study was also compared to the phase solubility study of DIA in the presence of HP-β-CD as a reference solubility/stability-enhancing excipient. […] The complexation K was calculated through Higuchi and Connors’ method, as previously reported.
The size distribution and zeta potential values of the ILs’ aggregates in aqueous solutions were evaluated by using a Zetasizer Nano ZS (Malvern) at 25 °C. The samples were prepared by adding an excess of either DIA or Rhe (5 mg/mL) to the aqueous IL solutions, incubating them for 30 min at 25 °C, and finally removing the excess drugs by centrifugation. […] In contrast, for PB solutions, the solutions were prepared in water, and […] of 100 mM pH 7 phosphate buffer was added per 1 mL of aqueous solution, directly in the cuvette, before the dynamic light scattering (DLS) analysis started. The concentrations of the solubilised drug were determined by UV–Vis analysis.

Data set [4] relates to S. aureus (clinical isolate W4). Put plainly: MIC determination (microdilution). The class given is cell-based, Staphylococcus aureus. Here is the method: as §1, §2
Data set [5] concerns BALB/3T3 clone A31 fibroblast cells. Put plainly: Cytotoxicity screening (WST-1). The class given is cell-based, murine. The following applies: Mus musculus, 4 h incubation, read-out: IC50 of cell viability. As for the experimental part: BALB/3T3 clone A31 fibroblast cells were grown in Dulbecco’s Modified Eagle Medium (DMEM), supplemented with 2 mM L-glutamine, 1% penicillin/streptomycin, and 10% bovine calf serum. Cells were grown in a CO2 incubator (Heracell 150i series) at 37 °C and 5% CO2, with cells sub-cultured at 80–90% confluency. The cell monolayers were rinsed with PBS and treated with trypsin–EDTA to detach the cells before their resuspension in fresh media. A subconfluent monolayer of BALB/3T3 clone A31 fibroblast cells was trypsinised, centrifuged at 1000 rpm for 5 min, resuspended in growth medium, and counted.
A cytotoxicity screening was carried out for both ILs (range […]), as well as DIA and Rhe (0.5–200 mg/mL). Briefly, BALB/3T3 clone A31 fibroblast cells were seeded in each well of 96-well plates at a seeding density of 6 × 10^3 cells/well for 24 h, until 60–70% confluence was reached. After 24 h, the medium was then removed from each well and replaced with DMEM containing the samples.
After 4 h of incubation, the media were removed, replaced with fresh medium containing 10% WST-1 reagent solution, and maintained for 4 h at 37° C with 5% CO2. Afterwards, formazan dye absorbance was quantified at 450 nm with the reference wavelength at 655 nm by using a multilabel reader (BioTek 800/TS, Thermo Scientific).
(Tetrazolium dyes change colour on reduction, which living cells bring about.)

The subject of data set [6] is P. aeruginosa ATCC 27853. Put plainly: Killing assay. The class given is cell-based, Pseudomonas aeruginosa. To be noted: 3 h incubation in 5% TSB; DIA 0.34 M, ILs 0.27 M. As for the experimental part: To this end, the bacterial strains were grown in TSB until the exponential phase, and approximately 5 × 10^4 CFU/mL-contained in 10 μL-was added to 5 μL of TSB, 35 μL of water, and 50 μL of one of the following solutions corresponding to the eye drop compositions tested in vivo: Bet6 or Carn6 with 0.27 M or 0.34 M DIA, plain DIA (0.34 M) solution, or plain Bet6/plain Carn6, both at 0.27 M. All solutions were prepared in CB. The samples were incubated at 37 °C with shaking for 3 h. A sample containing 0.6% DMSO (corresponding to the highest concentration of DMSO tested) was used as a control. Following incubation, the samples were diluted 10-fold in LB and plated on tryptone soy agar (TSA, Oxoid) to determine the number of CFU. Bactericidal activity was defined as a reduction of at least 3 Log10 in the number of viable bacteria as compared to the inoculum.

Values after ≈ are worked out from the molar mass of the structure shown. Where two headings read alike, the source gives them in different places. Some results are limits rather than exact numbers.

In data set [1], `CC(=O)Oc1cccc2c1C(=O)c1c(OC(C)=O)cc(C(=O)O)cc1C2=O` [DIA, diacerein] registered an osmolality of 230 mOsm/kg. The MIC in the data set on P. aeruginosa ATCC 27853 [2] (Pseudomonas aeruginosa, ATCC27853, planktonic cells, 24 h, 37 °C) was greater than 50 µg/mL; in data set [4] (Staphylococcus aureus, planktonic cells, 24 h, 37 °C), 50 µg/mL (≈ 136 µM). For the same molecule, the antibacterial effect entry was “inactive” with P. aeruginosa ATCC 27853 [2] (in words (discussion)) and “exert antibacterial effects” in data set [4] (in words (discussion)). Also, the solubility at 30 min was found to be 1350 µg/mL (≈ 3670 µM) in data set [3] (Bet6 solutions in citrate buffer, pH 5, aqueous with cosolvent or surfactant or cyclodextrin, in Bet6 solutions) and 680 µg/mL (≈ 1850 µM) in data set [3] (aqueous Carn6 solutions, aqueous with cosolvent or surfactant or cyclodextrin, in Carn6 solutions). The half-maximal inhibitory concentration (IC50) in data set [5] is 116 µg/mL (≈ 316 µM). The bactericidal effect result with P. aeruginosa ATCC 27853 [6] is “no evident bactericidal effect”.
